LC50 and Activity data for 1 compound are collected here from ChEMBL document CHEMBL3046058, “Insecticidal activity of huperzine A from the New Zealand clubmoss, Lycopodium varium” (2002).

Values after ≈ are worked out from the molar mass of the structure shown.

Format in all cases: functional
Test [1] relates to Tineola bisselliella. Nature of the test: Insecticidal activity against larvae of Tineola bisselliella assessed as survival after 14 days. The settings on record: 336 h, read-out: LD50 (the source's name).
Test [2] deals with Tineola bisselliella. The test can be described thus: Insecticidal activity against larvae of Tineola bisselliella assessed as survival at 430 to 4500 ppm after 14 days.
For test [3], the system named is Eurhopalus australis. The test can be described thus: Insecticidal activity against larvae of Anthrenocerus australis assessed as survival at 125 to 4000 ppm after 14 days.
In test [4] the test system is Lucilia cuprina. The test can be described thus: Insecticidal activity against newly hatched larvae of Lucilia cuprina assessed as mortality after 24 hr. The settings on record: read-out: LD50 (the source's name).
The test system of test [5] is Lucilia cuprina. Nature of the test: Insecticidal activity against newly hatched larvae of Lucilia cuprina assessed as survival at 450 to 5130 ppm after 24 hr.
In test [6] the test system is Eurhopalus australis. The test can be described thus: Antifeedant activity against larvae of Anthrenocerus australis assessed as amount of food intake at 63 ppm after 14 days (reference value: 55.5 mg).
Test [7] has as its system Eurhopalus australis. Nature of the test: Insecticidal activity against larvae of Anthrenocerus australis assessed as survival after 14 days. The settings on record: 336 h, read-out: LD50 (the source's name).

For the compound `C/C=C1\[C@H]2C=C(C)C[C@]1(N)c1ccc(=O)[nH]c1C2` [HUPERZINE A], the values for the LC50 in the test on Tineola bisselliella [1], in the test with Lucilia cuprina [4] and with Eurhopalus australis [7] were 630 µg/mL (≈ 2600 µM), 2380 µg/mL (≈ 9820 µM) and 110 µg/mL (≈ 454 µM), respectively. Besides, the Activity in the test with Tineola bisselliella [2] was determined as 3%; with Eurhopalus australis [3], 3%; with Lucilia cuprina [5], 8%; in the test on Eurhopalus australis [6] it was 1.5 mg.
